We go through 29 compounds from patent publication US8937077B2, “Bicyclic diamines as janus kinase inhibitors” (Merck Sharp & Dohme Corp., priority 2010, dated 2015).

T1 sequence (P23458 875-1153 limits assumed): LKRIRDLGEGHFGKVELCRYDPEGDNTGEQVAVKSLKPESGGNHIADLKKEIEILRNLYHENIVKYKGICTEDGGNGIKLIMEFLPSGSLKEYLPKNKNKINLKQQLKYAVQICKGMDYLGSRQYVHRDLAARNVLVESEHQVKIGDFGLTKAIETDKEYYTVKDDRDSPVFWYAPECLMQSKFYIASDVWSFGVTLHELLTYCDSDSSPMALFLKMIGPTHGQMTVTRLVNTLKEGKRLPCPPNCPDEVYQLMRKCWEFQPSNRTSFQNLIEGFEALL

One assay addresses T1, Jak1 (Homo sapiens, UniProt P23458).
T1 construct: using a recombinant purified GST-tagged catalytic domain for each enzyme; GST; purchased Invitrogen M4290
In words: Jak Biochemical HTRF Assay (Jak1). Conditions: IC50 class, recombinant GST-tagged catalytic domain, read-out: Jak1 activity. A digest of the protocol: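 Recombinant GST-tagged Jak1 catalytic domain was preincubated with compound and peptide substrate for 30 min at room temperature, and the reaction was then started with ATP and run 120 min. Buffer contained 2 mM DTT and 0.05% BSA. Read-out was HTRF (665/615 nm) with Eu-pY20 antibody and streptavidin-Dylight, and IC50 values came from 4-parameter fits of percent inhibition.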
Background: Time-resolved FRET reads energy transfer from a long-lived donor to a nearby acceptor.
Turning to `O=C(CN1CCc2ccccc2C1)N1CCC[C@@H]2[C@H]1CCN2c1ncnc2[nH]ccc12` [Example 29-36, 2-{2-oxo-2-[(3aR,7aR)-1-(7H-pyrrolo[2,3-d]pyrimidin-4-yl)octahydro-4H-pyrrolo[3,2-b]pyridin-4-yl]ethyl}-1,2,3,4-tetrahydroisoquinoline], the IC50 lay within 10 to 100 nM.

Consider `O=C(c1cccc2cnccc12)N1CCC[C@@H]2[C@H]1CCN2c1ncnc2[nH]ccc12` [Example 29-37, 5-{[(3aR,7aR)-1-(7H-pyrrolo[2,3-d]pyrimidin-4-yl)octahydro-4H-pyrrolo[3,2-b]pyridin-4-yl]carbonyl}isoquinoline], for which the IC50 fell in the range of 10 to 100 nM.

For `O=C(C1COc2ccccc2O1)N1CCC[C@@H]2[C@H]1CCN2c1ncnc2[nH]ccc12` (stereo partly drawn) [Example 29-38, 4-[(3aR,7aR)-4-(2,3-dihydro-1,4-benzodioxin-2-ylcarbonyl)octahydro-1H-pyrrolo[3,2-b]pyridin-1-yl]-7H-pyrrolo[2,3-d]pyrimidine], the IC50 lay within 10 to 100 nM.

For `O=C(c1cccc2ccncc12)N1CCC[C@@H]2[C@H]1CCN2c1ncnc2[nH]ccc12` [Example 29-39, 8-{[(3aR,7aR)-1-(7H-pyrrolo[2,3-d]pyrimidin-4-yl)octahydro-4H-pyrrolo[3,2-b]pyridin-4-yl]carbonyl}isoquinoline], the IC50 was 10 to 100 nM.

As to `O=C(c1cncc2ccccc12)N1CCC[C@@H]2[C@H]1CCN2c1ncnc2[nH]ccc12` [Example 29-40, 4-{[(3aR,7aR)-1-(7H-pyrrolo[2,3-d]pyrimidin-4-yl)octahydro-4H-pyrrolo[3,2-b]pyridin-4-yl]carbonyl}isoquinoline], the IC50 lay in the range of 10 to 100 nM.

In the case of `O=C(c1ncoc1C1CC1)N1CCC[C@@H]2[C@H]1CCN2c1ncnc2[nH]ccc12` [Example 29-41, 4-{(3aR,7aR)-4-[(5-cyclopropyl-1,3-oxazol-4-yl)carbonyl]octahydro-1H-pyrrolo[3,2-b]pyridin-1-yl}-7H-pyrrolo[2,3-d]pyrimidine], the IC50 lay within 10 to 100 nM.

As to `CC(Cc1ccccc1)C(=O)N1CCC[C@@H]2[C@H]1CCN2c1ncnc2[nH]ccc12` (stereo partly drawn) [Example 29-42, 4-[(3aR,7aR)-4-(2-methyl-3-phenylpropanoyl)octahydro-1H-pyrrolo[3,2-b]pyridin-1-yl]-7H-pyrrolo[2,3-d]pyrimidine], the IC50 lay in the range of 10 to 100 nM.

On to `O=C(c1cnc2ccccc2c1)N1CCC[C@@H]2[C@H]1CCN2c1ncnc2[nH]ccc12` [Example 29-44, 3-{[(3aR,7aR)-1-(7H-pyrrolo[2,3-d]pyrimidin-4-yl)octahydro-4H-pyrrolo[3,2-b]pyridin-4-yl]carbonyl}quinoline], for which the IC50 was 10 to 100 nM.

For the compound `O=C(c1c[nH]c2ccncc12)N1CCC[C@@H]2[C@H]1CCN2c1ncnc2[nH]ccc12` [Example 29-45, 4-[(3aR,7aR)-4-(1H-pyrrolo[3,2-c]pyridin-3-ylcarbonyl)octahydro-1H-pyrrolo[3,2-b]pyridin-1-yl]-7H-pyrrolo[2,3-d]pyrimidine], the IC50 lay within 10 to 100 nM.

`O=C(C(O)c1ccccc1)N1CCC[C@@H]2[C@H]1CCN2c1ncnc2[nH]ccc12` (stereo partly drawn) [Example 29-46, 2-oxo-1-phenyl-2-[(3aR,7aR)-1-(7H-pyrrolo[2,3-d]pyrimidin-4-yl)octahydro-4H-pyrrolo[3,2-b]pyridin-4-yl]ethanol]: the IC50 was 10 to 100 nM.

Turning to `O=C(c1nccc2ccccc12)N1CCC[C@@H]2[C@H]1CCN2c1ncnc2[nH]ccc12` [Example 29-47, 1-{[(3aR,7aR)-1-(7H-pyrrolo[2,3-d]pyrimidin-4-yl)octahydro-4H-pyrrolo[3,2-b]pyridin-4-yl]carbonyl}isoquinoline], the IC50 is 10 to 100 nM.

For the compound `O=C(c1cc2ccsc2[nH]1)N1CCC[C@@H]2[C@H]1CCN2c1ncnc2[nH]ccc12` [Example 29-48, 4-[(3aR,7aR)-4-(6H-thieno[2,3-b]pyrrol-5-ylcarbonyl)octahydro-1H-pyrrolo[3,2-b]pryidin-1-yl]7H-pyrrolo[2,3-d]pyrimidine], the IC50 was in the range of 100 to 1000 nM.

Regarding `O=C(c1cn2cccnc2n1)N1CCC[C@@H]2[C@H]1CCN2c1ncnc2[nH]ccc12` [Example 29-49, 4-[(3aR,7aR)-4-(imidazo[1,2-a]pyrimidin-2-ylcarbonyl)octahydro-1H-pyrrolo[3,2-b]pyridin-1-yl]-7H-pyrrolo[2,3-d]pyrimidine], the IC50 lay in the range of 100 to 1000 nM.

In the case of `Cn1ccc2cc(C(=O)N3CCC[C@@H]4[C@H]3CCN4c3ncnc4[nH]ccc34)cnc21` [Example 29-50, 4-{(3aR,7aR)-4-[(1-methyl-1H-pyrrolo[2,3-b]pyridin-5-yl)carbonyl]octahydro-1H-pyrrolo[3,2-b]pyridin-1-yl}-7H-pyrrolo[2,3-d]pyrimidine], the IC50 lay in the range of 100 to 1000 nM.

`O=C(c1cccc2cccnc12)N1CCC[C@@H]2[C@H]1CCN2c1ncnc2[nH]ccc12` [Example 29-51, 8-{[(3aR,7aR)-1-(7H-pyrrolo[2,3-d]pyrimidin-4-yl)octahydro-4H-pyrrolo[3,2-b]pyridin-4-yl]carbonyl}quinoline]: the IC50 lay in the range of 100 to 1000 nM.

Consider `O=C(c1cc2ccccn2c1)N1CCC[C@@H]2[C@H]1CCN2c1ncnc2[nH]ccc12` [Example 29-52, 4-[(3aR,7aR)-4-(indolizin-2-ylcarbonyl)octahydro-1H-pyrrolo[3,2-b]pyridin-1-yl]-7H-pyrrolo[2,3-d]pyrimidine], for which the IC50 was 100 to 1000 nM.

On to `O=C(Cn1cnc2ccccc21)N1CCC[C@@H]2[C@H]1CCN2c1ncnc2[nH]ccc12` [Example 29-53, 4-[(3aR,7aR)-4-(1H-benzimidazol-1-ylacetyl)octahydro-1H-pyrrolo[3,2-b]pyridin-1-yl]-7H-pyrrolo[2,3-d]pyrimidine], for which the IC50 was in the range of 100 to 1000 nM.

With `O=C(Cn1cc2ccccc2n1)N1CCC[C@@H]2[C@H]1CCN2c1ncnc2[nH]ccc12` [Example 29-54, 4-[(3aR,7aR)-4-(2H-indazol-2-ylacetyl)octahydro-1H-pyrrolo[3,2-b]pyridin-1-yl]-7H-pyrrolo[2,3-d]pyrimidine], the IC50 lay in the range of 100 to 1000 nM.

As for `CN1CCCC(CCC(=O)N2CCC[C@@H]3[C@H]2CCN3c2ncnc3[nH]ccc23)C1` (stereo partly drawn) [Example 29-55, 4-{(3aR,7aR)-4-[3-(1-methylpiperidin-3-yl)propanoyl]octahydro-1H-pyrrolo[3,2-b]pyridin-1-yl}-7H-pyrrolo[2,3-d]pyrimidine], the IC50 is 100 to 1000 nM.

In the case of `O=C(c1cc(-c2cccc(F)c2)no1)N1CCC[C@@H]2[C@H]1CCN2c1ncnc2[nH]ccc12` [Example 29-57, 4-[(3aR,7aR)-4-{[3-(3-fluorophenyl)isoxazol-5-yl]carbonyl}octahydro-1H-pyrrolo[3,2b]pryidin-1-yl]-7H-pyrrolo[2,3-d]pyrimidine], the IC50 lay in the range of 100 to 1000 nM.

Turning to `Cn1ncc2cc(CC(=O)N3CCC[C@@H]4[C@H]3CCN4c3ncnc4[nH]ccc34)ccc21` [Example 29-59, 4-{(3aR,7aR)-4-[(1-methyl-1H-indazol-5-yl)acetyl]octahydro-1H-pyrrolo[3,2-b]pyridin-1-yl}-7H-pyrrolo[2,3-d]pyrimidine], the IC50 is 100 to 1000 nM.

Turning to `O=C(c1cn2ccc(Cl)cc2n1)N1CCC[C@@H]2[C@H]1CCN2c1ncnc2[nH]ccc12` [Example 29-60, 4-{(3aR,7aR)-4-[(7-chloroimidazo[1,2-a]pyridin-2-yl)carbonyl]octahydro-1H-pyrrolo[3,2-b]pyridin-1-yl}-7H-pyrrolo[2,3-d]pyrimidine], the IC50 lay within 100 to 1000 nM.

For `O=C(c1ccnc2ccccc12)N1CCC[C@@H]2[C@H]1CCN2c1ncnc2[nH]ccc12` [Example 29-61, 4-{[(3aR,7aR)-1-(7H-pyrrolo[2,3-d]pyrimidin-4-yl)octahydro-4H-pyrrolo[3,2-b]pyridin-4-yl]carbonyl}quinoline], the IC50 lay in the range of 10 to 100 nM.

On to `O=C1NCc2ccc(C(=O)N3CCC[C@@H]4[C@H]3CCN4c3ncnc4[nH]ccc34)cc21` [Example 29-62, 6-{[(3aR,7aR)-1-(7H-pyrrolo[2,3-d]pyrimidin-4-yl)octahydro-4H-pyrrolo[3,2-b]pyridin-4-yl]carbonyl}-2,3-dihydro-1H-isoindol-1-one], for which the IC50 lay within 10 to 100 nM.

Consider `O=C(OCc1ccccc1)N1CCCC2C1CCN2c1ccnc2[nH]ccc12` [Example 30, (3aS,7aS and 3aR,7aR) benzyl 1-(1H-pyrrolo[2,3-b]pyridine-4-yl)octahydro-4H-pyrrolo[3,2-b]pyridine-4-carboxylate], for which the IC50 was 100 to 1000 nM.

In the case of `c1ccc(-c2nnc(N3CCCC4C3CCN4c3ncnc4[nH]ccc34)o2)cc1` [Example 31, (3aS,7aS and 3aR,7aR) 4-[4-(5-phenyl-1,3,4-oxadiazol-2-yl)octahydro-1H-pyrrolo[3,2-b]pyridin-1-yl]-7H-pyrrolo[2,3-d]pyrimidine], the IC50 lay within 100 to 1000 nM.

In the case of `CC(C)S(=O)(=O)N1CCC[C@@H]2[C@H]1CCN2c1ncnc2[nH]ccc12` [Example 32-1, 4-{(3aR,7aR)-4-[(1-methylethyl)sulfonyl]octahydro-1H-pyrrolo[3,2-b]pyridin-1-yl}-7H-pyrrolo[2,3-d]pyrimidine], the IC50 fell in the range of 10 to 100 nM.

For `O=S(=O)(CCc1ccccc1)N1CCC[C@@H]2[C@H]1CCN2c1ncnc2[nH]ccc12` [Example 32-2, 4-{(3aR,7aR)-4-[(2-phenylethyl)sulfonyl]octahydro-1H-pyrrolo[3,2-b]pyridin-1-yl}-7H-pyrrolo[2,3-d]pyrimidine], the IC50 was 1 to 10 nM.

Consider `O=S(=O)(c1ccco1)N1CCC[C@@H]2[C@H]1CCN2c1ncnc2[nH]ccc12` [Example 32-4, 4-[(3aR,7aR)-4-(furan-2-ylsulfonyl)octahydro-1H-pyrrolo[3,2-b]pyridin-1-yl]-7H-pyrrolo[2,3-d]pyrimidine], for which the IC50 is 10 to 100 nM.

The same assay, now with this note: recombinant GST-tagged catalytic domain, 31.8 μM ATP, read-out: Representative IC50 values.
On to `O=C(CN1CCc2ccccc2C1)N1CCC[C@@H]2[C@H]1CCN2c1ncnc2[nH]ccc12` [Example 29-36, 2-{2-oxo-2-[(3aR,7aR)-1-(7H-pyrrolo[2,3-d]pyrimidin-4-yl)octahydro-4H-pyrrolo[3,2-b]pyridin-4-yl]ethyl}-1,2,3,4-tetrahydroisoquinoline], for which the IC50 worked out at 30 nM.

Take `O=C(c1cn2cccnc2n1)N1CCC[C@@H]2[C@H]1CCN2c1ncnc2[nH]ccc12` [Example 29-49, 4-[(3aR,7aR)-4-(imidazo[1,2-a]pyrimidin-2-ylcarbonyl)octahydro-1H-pyrrolo[3,2-b]pyridin-1-yl]-7H-pyrrolo[2,3-d]pyrimidine]: the IC50 was 132 nM.

On to `O=S(=O)(CCc1ccccc1)N1CCC[C@@H]2[C@H]1CCN2c1ncnc2[nH]ccc12` [Example 32-2, 4-{(3aR,7aR)-4-[(2-phenylethyl)sulfonyl]octahydro-1H-pyrrolo[3,2-b]pyridin-1-yl}-7H-pyrrolo[2,3-d]pyrimidine], for which the IC50 was 7 nM.

Regarding `O=S(=O)(c1ccco1)N1CCC[C@@H]2[C@H]1CCN2c1ncnc2[nH]ccc12` [Example 32-4, 4-[(3aR,7aR)-4-(furan-2-ylsulfonyl)octahydro-1H-pyrrolo[3,2-b]pyridin-1-yl]-7H-pyrrolo[2,3-d]pyrimidine], the IC50 turned out to be 14 nM.
